Experimental findings from patent US20250195530A1, “POLQ INHIBITORS” (ASTRAZENECA AB, priority 2022, published 2025) are described below.

The experiment has as its system DLD-1 BRCA2−/− cells. Nature of the experiment: Homologous recombination synthetic lethal inhibition of proliferation, DLD-1 BRCA2-/- (Cell Titre Glo 3D). The class given is cell-based. As to conditions: Homo sapiens. In a few lines:
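Isogenic DLD-1 pair; BRCA2−/− seeded 3,000 cells/mL and read day 12, wt seeded 1,500 cells/mL and read day 7. 10-pt titration (top 10 μM, 3-fold), re-fed with compound day 6, 37 °C/5% CO2. CTG 3D endpoint; IC50 at 50% signal loss.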

Where [1] appears, read: DLD-1, proliferation, luminescence, taken as DLD-1 BRCA2-/-, read-out: POLQ PD Prolif Lumin (converted).
[2] abbreviates: DLD-1, DLD-1 BRCA2 −/−, mean, read-out: POLQ PD Prolif Lumin BRCA2 −/− mean pIC50 (converted).
The mark [3] stands for this setting: DLD-1, DLD-1 BRCA2 −/− cells, mean, read-out: POLQ PD Prolif Lumin BRCA2 −/− mean pIC50 (converted).
[4] abbreviates: DLD-1, first proliferation column (c5), DLD-1 BRCA2-/-, read-out: POLQ PD Prolif Lumin (converted).
[5] abbreviates: DLD-1, first proliferation column, DLD-1 BRCA2-/-, read-out: POLQ PD Prolif Lumin (converted).
Setting [6] is: DLD-1, DLD-1 BRCA2-/- proliferation, column head only partly shown, read-out: POLQ PD Prolif Lumin (converted).

The structures appear in SMILES notation. Read-outs that look alike come from different tables or passages of the source.

With `Cc1ccnc(Cn2c(-c3ccc(C(=O)N4CC[C@@H](C#N)C4)cc3Cl)nc3c(OC4(C)CC4)ncnc32)c1` [Example T405, (R)-1-(3-chloro-4-(6-(1-methylcyclopropoxy)-9-((4-methylpyridin-2-yl)methyl)-9H-purin-8-yl)benzoyl)pyrrolidine-3-carbonitrile], the IC50 under setting [1] was 1260 nM. As to `CC(COc1ccc(-c2nc3c(OC4(C)CC4)ncnc3n2Cc2cc(Cl)ccc2F)c(Cl)c1)CC(=O)O` (racemic) [Example U45, 4-(3-chloro-4-(9-(5-chloro-2-fluorobenzyl)-6-(1-methylcyclopropoxy)-9H-purin-8-yl)phenoxy)-3-methylbutanoic acid], the IC50 under setting [2] is 79.4 nM. Consider `CC1(Oc2ncnc3c2nc(-c2ccc(CC(N)=O)cc2Cl)n3Cc2ccc(F)cc2)CC1` [Example T43, 2-(3-chloro-4-(9-(4-fluorobenzyl)-6-(1-methylcyclopropoxy)-9H-purin-8-yl)phenyl)acetamide], for which the IC50 under setting [3] is 631 nM. For `COc1cc(Cl)cc(Cn2c(-c3ccc(OCCC(C)C(=O)O)cc3Cl)nc3c(OC4(C)CC4)ncnc32)c1` (single isomer, unassigned) [Example T446, 4-(3-chloro-4-(9-(3-chloro-5-methoxybenzyl)-6-(1-methylcyclopropoxy)-9H-purin-8-yl)phenoxy)-2-methylbutanoic acid], the IC50 under setting [1] was 316 nM. As to `Cc1ccnc(Cn2c(-c3ccc(N4CCCNCC4)cc3Cl)nc3c(OC4(C)CC4)ncnc32)c1` [Example T384, 8-(2-chloro-4-(1,4-diazepan-1-yl)phenyl)-6-(1-methylcyclopropoxy)-9-((4-methylpyridin-2-yl)methyl)-9H-purine], the IC50 (DLD-1, first proliferation column (c5), taken as DLD-1 BRCA2-/-, read-out: POLQ PD Prolif Lumin (converted)) was 398 nM. As for `CC1(Oc2ncnc3c2nc(-c2ccc(OCCC(=O)NS(C)(=O)=O)cc2Cl)n3Cc2cccc(Cl)c2)CC1` [Example T189, 3-(3-chloro-4-(9-(3-chlorobenzyl)-6-(1-methylcyclopropoxy)-9H-purin-8-yl)phenoxy)-N-(methylsulfonyl)propanamide], the IC50 under setting [4] was 3980 nM.

For `CC(=O)N1CCN(CCOc2ccc(-c3nc4c(OC5(C)CC5)ncnc4n3Cc3cc(C)ccn3)c(Cl)c2)CC1` [Example T607, 1-(4-(2-(3-chloro-4-(6-(1-methylcyclopropoxy)-9-((4-methylpyridin-2-yl)methyl)-9H-purin-8-yl)phenoxy)ethyl)piperazin-1-yl)ethan-1-one], the IC50 under setting [5] was 126 nM.

Take `CC1(Oc2ncnc3c2nc(-c2ccc(CCCCC(=O)O)cc2Cl)n3Cc2cccc(Cl)c2)CC1` [Example T289, 5-(3-chloro-4-(9-(3-chlorobenzyl)-6-(1-methylcyclopropoxy)-9H-purin-8-yl)phenyl)pentanoic acid]: under setting [6], the IC50 is 126 nM. As to `Cc1ccnc(Cn2c(-c3ccc(C(=O)NC4COC4)cc3Cl)nc3c(OC4(C)CC4)ncnc32)c1` [Example T177, 3-chloro-4-(6-(1-methylcyclopropoxy)-9-((4-methylpyridin-2-yl)methyl)-9H-purin-8-yl)-N-(oxetan-3-yl)benzamide], the IC50 under setting [4] was 1000 nM. For `Cc1ccnc(Cn2c(-c3cc(CC(N)=O)ccc3Cl)nc3c(OC4(C)CC4)ncnc32)c1` [Example T57, 2-(4-chloro-3-(6-(1-methylcyclopropoxy)-9-((4-methylpyridin-2-yl)methyl)-9H-purin-8-yl)phenyl)acetamide], under setting [3], the IC50 was more than 10000 nM. As to `Cc1ccnc(Cn2c(-c3ccc(OCC(=O)N4CC[C@@H](CO)C4)cc3Cl)nc3c(OC4(C)CC4)ncnc32)c1` [Example T578, (R)-2-(3-chloro-4-(6-(1-methylcyclopropoxy)-9-((4-methylpyridin-2-yl)methyl)-9H-purin-8-yl)phenoxy)-1-(3-(hydroxymethyl)pyrrolidin-1-yl)ethan-1-one], under setting [5], the IC50 is 631 nM. `Cc1ccnc(Cn2c(-c3ccc(C(=O)NCCCF)cc3Cl)nc3c(OC4(C)CC4)ncnc32)c1` [Example T191, 3-chloro-N-(3-fluoropropyl)-4-(6-(1-methylcyclopropoxy)-9-((4-methylpyridin-2-yl)methyl)-9H-purin-8-yl)benzamide]: the IC50 under setting [4] was 398 nM. As to `Cc1ccnc(Cn2c(-c3ccc(OCCOCCO)cc3Cl)nc3c(OC4(C)CC4)ncnc32)c1` [Example T233, 2-(2-(3-chloro-4-(6-(1-methylcyclopropoxy)-9-((4-methylpyridin-2-yl)methyl)-9H-purin-8-yl)phenoxy)ethoxy)ethan-1-ol], the IC50 under setting [6] is 158 nM. As for `CC(CCOc1ccc(-c2nc3c(OC4(C)CC4)ncnc3n2Cc2cc(Cl)ccc2OC(F)F)c(Cl)c1)C(=O)O` (racemic) [Example U60, 4-(3-chloro-4-(9-(5-chloro-2-(difluoromethoxy)benzyl)-6-(1-methylcyclopropoxy)-9H-purin-8-yl)phenoxy)-2-methylbutanoic acid], under setting [2], the IC50 is 126 nM. For `COc1cnnc(Cn2c(-c3ccc(CC(N)=O)cc3Cl)nc3c(OC4(C)CC4)ncnc32)c1` [Example T22, 2-(3-chloro-4-(9-((5-methoxypyridazin-3-yl)methyl)-6-(1-methylcyclopropoxy)-9H-purin-8-yl)phenyl)acetamide], the IC50 under setting [3] is 3980 nM. Regarding `CC1(Oc2cccc3c2nc(-c2ccc(OCCN4CCNCC4)cc2Cl)n3Cc2cccc(Cl)c2)CCC1` [Example T611, 2-(2-chloro-4-(2-(piperazin-1-yl)ethoxy)phenyl)-1-(3-chlorobenzyl)-4-(1-methylcyclobutoxy)-1H-benzo[d]imidazole], the IC50 under setting [5] was 316 nM.

With `CCNC(=O)COc1ccc(-c2nc3c(OC4(C)CC4)ncnc3n2Cc2cc(C)ccn2)c(Cl)c1` [Example T221, 2-(3-chloro-4-(6-(1-methylcyclopropoxy)-9-((4-methylpyridin-2-yl)methyl)-9H-purin-8-yl)phenoxy)-N-ethylacetamide], the IC50 under setting [6] is 316 nM. `Cn1nc(COc2ccc(-c3nc4c(OC5(C)CC5)ncnc4n3Cc3cccc(Cl)c3)c(Cl)c2)cc1C(=O)O` [Example T394, 3-((3-chloro-4-(9-(3-chlorobenzyl)-6-(1-methylcyclopropoxy)-9H-purin-8-yl)phenoxy)methyl)-1-methyl-1H-pyrazole-5-carboxylic acid]: under setting [1], the IC50 is 3160 nM. Regarding `Cc1ccnc(Cn2c(-c3ccc(OCC(=O)N4C[C@H]5C[C@@H](C4)O5)cc3Cl)nc3c(OC4(C)CC4)ncnc32)c1` [Example T550, rel-1-((1R,5S)-6-oxa-3-azabicyclo[3.1.1]heptan-3-yl)-2-(3-chloro-4-(6-(1-methylcyclopropoxy)-9-((4-methylpyridin-2-yl)methyl)-9H-purin-8-yl)phenoxy)ethan-1-one], the IC50 under setting [4] is 316 nM.

`CC1(Oc2ncnc3c2nc(-c2ccc(CC(N)=O)cc2Cl)n3Cc2ccccc2)CC1` [Example T48, 2-(4-(9-benzyl-6-(1-methylcyclopropoxy)-9H-purin-8-yl)-3-chlorophenyl)acetamide]: under setting [3], the IC50 is 200 nM. On to `Cc1ccnc(Cn2c(-c3ccc(N4CCC5(CCN5)CC4)cc3Cl)nc3c(OC4(C)CC4)ncnc32)c1` [Example T586, 8-(2-chloro-4-(1,7-diazaspiro[3.5]nonan-7-yl)phenyl)-6-(1-methylcyclopropoxy)-9-((4-methylpyridin-2-yl)methyl)-9H-purine], for which the IC50 under setting [5] is 1580 nM. In the case of `Cc1ccnc(Cn2c(-c3ccc(OCCN4CC[C@@H](O)C4=O)cc3Cl)nc3c(OC4(C)CC4)ncnc32)c1` [Example T474, (R)-1-(2-(3-chloro-4-(6-(1-methylcyclopropoxy)-9-((4-methylpyridin-2-yl)methyl)-9H-purin-8-yl)phenoxy)ethyl)-3-hydroxypyrrolidin-2-one], under setting [1], the IC50 is 251 nM. In the case of `CC1(Oc2ncnc3c2nc(-c2ccc(CC(N)=O)cc2Cl)n3Cc2cccnc2C(F)(F)F)CC1` [Example T37, 2-(3-chloro-4-(6-(1-methylcyclopropoxy)-9-((2-(trifluoromethyl)pyridin-3-yl)methyl)-9H-purin-8-yl)phenyl)acetamide], the IC50 under setting [3] is more than 10000 nM. `Cc1ccnc(Cn2c(-c3ccc(OC4CC5(COC5)C4)cc3Cl)nc3c(OC4(C)CC4)ncnc32)c1` [Example T426, 8-(4-((2-oxaspiro[3.3]heptan-6-yl)oxy)-2-chlorophenyl)-6-(1-methylcyclopropoxy)-9-((4-methylpyridin-2-yl)methyl)-9H-purine]: the IC50 under setting [1] is 100 nM.

Regarding `CC(CCOc1ccc(-c2nc3c(OC4(C)CC4)ncnc3n2Cc2cccc(C(F)F)c2)c(Cl)c1)C(=O)O` (single isomer, unassigned) [Example T412, 4-(3-chloro-4-(9-(3-(difluoromethyl)benzyl)-6-(1-methylcyclopropoxy)-9H-purin-8-yl)phenoxy)-2-methylbutanoic acid], the IC50 under setting [1] is 251 nM. As to `CNC(=O)CNc1ccc(-c2nc3c(OC4(C)CC4)ncnc3n2Cc2cc(C)ccn2)c(Cl)c1` [Example T131, 2-((3-chloro-4-(6-(1-methylcyclopropoxy)-9-((4-methylpyridin-2-yl)methyl)-9H-purin-8-yl)phenyl)amino)-N-methylacetamide], under setting [4], the IC50 is 794 nM. On to `Cc1ccnc(Cn2c(-c3ccc(CC(=O)NCCO)cc3Cl)nc3c(OC4(C)CC4)ncnc32)c1` [Example T224, 2-(3-chloro-4-(6-(1-methylcyclopropoxy)-9-((4-methylpyridin-2-yl)methyl)-9H-purin-8-yl)phenyl)-N-(2-hydroxyethyl)acetamide], for which the IC50 under setting [6] is 1000 nM.
